Data set [1] can be described thus: Area under curve determined after intravenous administration at a dose of 3 mg/kg in cynomolgus monkey. Particulars: in vivo. The class given is ADME, organism-based, Macaca fascicularis. Details: dose 3 mg/kg, route intravenous.
The nature of data set [2]: Area under curve determined after peroral administration at a dose of 10 mg/kg in cynomolgus monkey. The class given is ADME, organism-based, Macaca fascicularis. More on the design: dose 10 mg/kg, route oral. Particulars: in vivo, po.
In data set [3] the target is 72 kDa type IV collagenase (Homo sapiens, UniProt P08253). Put plainly: In vitro inhibition of Matrix metalloprotease-2.
Chain of 72 kDa type IV collagenase (P08253 whole entry): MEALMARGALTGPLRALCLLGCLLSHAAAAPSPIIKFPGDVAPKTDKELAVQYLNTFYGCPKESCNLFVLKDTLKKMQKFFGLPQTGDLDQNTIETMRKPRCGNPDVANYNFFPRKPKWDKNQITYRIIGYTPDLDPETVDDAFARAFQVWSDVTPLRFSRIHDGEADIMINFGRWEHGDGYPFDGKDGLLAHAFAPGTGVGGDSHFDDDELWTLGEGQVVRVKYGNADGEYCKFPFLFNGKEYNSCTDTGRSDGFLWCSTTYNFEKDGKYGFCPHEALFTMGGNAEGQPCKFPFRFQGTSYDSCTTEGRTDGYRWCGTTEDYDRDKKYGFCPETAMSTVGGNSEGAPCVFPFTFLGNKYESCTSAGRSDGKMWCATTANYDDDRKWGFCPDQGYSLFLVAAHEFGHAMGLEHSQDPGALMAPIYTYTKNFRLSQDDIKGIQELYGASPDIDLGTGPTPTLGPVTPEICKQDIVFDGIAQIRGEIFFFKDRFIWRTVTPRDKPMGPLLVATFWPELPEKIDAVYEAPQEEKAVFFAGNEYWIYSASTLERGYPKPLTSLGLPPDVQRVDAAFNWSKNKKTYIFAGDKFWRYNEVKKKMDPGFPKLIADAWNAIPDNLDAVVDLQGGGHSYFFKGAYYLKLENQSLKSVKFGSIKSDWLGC
Data set [4] can be described thus: Half life determined after intravenous administration at a dose of 3 mg/kg in cynomolgus monkey. The class given is ADME, organism-based, Macaca fascicularis. More on the design: dose 3 mg/kg, route intravenous. Particulars: in vivo.
For the next data set, the target named is Stromelysin-1 (Homo sapiens, UniProt P08254). The data set can be described thus: In vitro inhibition of Matrix metalloprotease-3.
Chain of Stromelysin-1 (P08254 whole entry): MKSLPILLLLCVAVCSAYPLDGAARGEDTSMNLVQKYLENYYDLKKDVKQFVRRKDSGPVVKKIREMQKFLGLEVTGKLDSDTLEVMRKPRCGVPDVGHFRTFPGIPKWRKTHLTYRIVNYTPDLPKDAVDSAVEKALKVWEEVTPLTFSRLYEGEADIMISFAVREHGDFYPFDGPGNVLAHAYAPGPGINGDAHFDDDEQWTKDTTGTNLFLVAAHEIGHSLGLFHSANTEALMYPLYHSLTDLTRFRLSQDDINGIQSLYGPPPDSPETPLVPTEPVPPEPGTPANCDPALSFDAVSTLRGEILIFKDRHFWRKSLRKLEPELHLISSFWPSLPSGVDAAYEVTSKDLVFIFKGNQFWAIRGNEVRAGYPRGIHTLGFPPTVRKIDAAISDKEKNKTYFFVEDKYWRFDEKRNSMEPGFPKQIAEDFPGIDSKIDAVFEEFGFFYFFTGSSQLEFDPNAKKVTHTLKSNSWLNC
Data set [5] in a line: Oral bioavailability in cynomolgus monkey. The class given is ADME, organism-based, Macaca fascicularis. Particulars: in vivo.
A further data set deals with T1, Interstitial collagenase (Homo sapiens, UniProt P03956).
T1 sequence (P03956 whole entry): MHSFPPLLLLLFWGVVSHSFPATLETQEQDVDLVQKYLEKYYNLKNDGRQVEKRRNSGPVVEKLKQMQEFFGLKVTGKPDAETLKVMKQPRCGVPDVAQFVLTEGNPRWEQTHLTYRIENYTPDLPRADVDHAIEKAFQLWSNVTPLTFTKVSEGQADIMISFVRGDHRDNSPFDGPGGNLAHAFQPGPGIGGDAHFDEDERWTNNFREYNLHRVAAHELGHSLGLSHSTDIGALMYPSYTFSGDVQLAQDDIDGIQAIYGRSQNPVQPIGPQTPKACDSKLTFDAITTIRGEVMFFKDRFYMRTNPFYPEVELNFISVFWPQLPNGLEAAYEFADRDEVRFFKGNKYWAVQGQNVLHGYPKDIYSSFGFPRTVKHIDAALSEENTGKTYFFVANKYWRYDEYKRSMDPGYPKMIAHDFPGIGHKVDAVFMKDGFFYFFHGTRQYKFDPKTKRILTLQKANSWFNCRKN
Put plainly: In vitro inhibition of Matrix metalloprotease-1.

Data set [6] in a line: Area under curve determined after peroral administration at a dose of 3 mg/kg in cynomolgus monkey. It is filed as ADME, organism-based, Macaca fascicularis. More on the design: dose 3 mg/kg, route oral. Particulars: in vivo, po.
The nature of data set [7]: Half life after iv administration in cynomolgus monkey. The class given is ADME, organism-based, Macaca fascicularis. Particulars: in vivo.
Data set [8] is described as follows: Half life determined in rat by intravenous administration. Particulars: in vivo. It is filed as ADME, organism-based.
Data set [9] can be described thus: Oral Bioavailability in rat. The class given is ADME, organism-based. Particulars: in vivo.
The nature of data set [10]: Bioavailability determined after oral administration in marmoset. The class given is ADME, organism-based. Particulars: callitrichinae sp., in vivo.

In general, IC50 refers to the concentration that inhibits the measured activity by half. As usually defined, the half-life is the time in which the quantity being followed falls by half.

For the molecule `CN1C(=O)N(CC(COc2ccc(-c3ccc(C#N)cc3)cc2)N(O)C=O)C(=O)C1(C)C` (stereo unspecified), the results for the AUC in data set [1] and in [2] were 15.2 uM hr l-1 and 11.8 uM hr l-1, respectively. The IC50 came out at 58000 nM in data set [3] and 9.1 nM against Stromelysin-1. The same molecule had a half-life in data set [4] of 2.5 h. Besides, the bioavailability in data set [5] stood at 23%.

Consider `CC1(C)NC(=O)N(CCC(COc2ccc(-c3ccc(C#N)cc3)cc2)N(O)C=O)C1=O` (stereo unspecified), for which the figures for the AUC in data set [1] and in data set [6] were 47.5 uM hr l-1 and 2.4 uM hr l-1, respectively. For the same molecule, the results for the IC50 (at Interstitial collagenase; in [3]; against Stromelysin-1) were 14000 nM, 6900 nM and 35 nM, respectively. Further, the half-life in data set [4] was 12.7 h. Besides, the bioavailability in data set [5] came out at 6%.

For the molecule `CCN1C(=O)N(CC(COc2ccc(-c3ccc(C#N)cc3)cc2)N(O)C=O)C(=O)C1(C)C` (stereo unspecified), the AUC in data set [1] was 12.3 uM hr l-1. In addition, the results for the IC50 (against Interstitial collagenase; in data set [3]; at Stromelysin-1) were 2400 nM, 12000 nM and 27 nM, respectively. The half-life in data set [4] was 1.8 h.

On to `CC1(C)CC(=O)N(CC(COc2ccc(-c3ccc(C#N)cc3)cc2)N(O)C=O)C(=O)C1` (stereo unspecified), for which the IC50 at Interstitial collagenase was 360 nM; in data set [3] it was 25000 nM; against Stromelysin-1 it was 37 nM.

In the case of `N#Cc1ccc(-c2ccc(OCC(Cc3ccc(F)cc3)N(O)C=O)cc2)cc1` (stereo unspecified), the 50% inhibitory concentration (IC50) was found to be 14000 nM against Interstitial collagenase and 180 nM against Stromelysin-1. In addition, the half-life in data set [7] is < 1 h.

As for `N#Cc1ccc(-c2ccc(OCCC(=O)O)cc2)cc1`, the IC50 in data set [3] was 8000 nM; at Stromelysin-1 it was > 10 nM.

Regarding `CN1C(=O)N(CCC(COc2ccc(-c3ccc(C#N)cc3)cc2)N(O)C=O)C(=O)C1(C)C` (stereo unspecified), the AUC was 8 uM hr l-1 in [1] and 1.8 uM hr l-1 in [2]. Besides, the results for the IC50 (against Interstitial collagenase; in data set [3]; against Stromelysin-1) were > 10000 nM, 45000 nM and 17 nM, respectively. Further, the half-life in data set [4] is 0.5 h. Moreover, the bioavailability in [5] worked out at 6%.

Turning to `N#Cc1ccc(-c2ccc(OCCN(O)C=O)cc2)cc1`, the IC50 was > 50 nM against Interstitial collagenase, 400 nM in data set [3] and 0.062 nM on Stromelysin-1.

Take `N#Cc1ccc(-c2ccc(OCC(CN3C(=O)c4ccccc4C3=O)N(O)C=O)cc2)cc1` (stereo unspecified): the IC50 at Interstitial collagenase is > 10000 nM; in data set [3] it was 37000 nM; on Stromelysin-1 it was 21 nM. The same molecule had a half-life in [4] of 0.3 h.

For the molecule `N#Cc1ccc(-c2ccc(OCCC(=O)NO)cc2)cc1`, the IC50 at Interstitial collagenase stood at 3.3 nM; in data set [3], 32 nM; on Stromelysin-1, 0.057 nM.

`N#Cc1ccc(-c2ccc(OCC(c3ccc(F)cc3)N(O)C=O)cc2)cc1` (stereo unspecified): the values for the 50% inhibitory concentration (IC50) on Interstitial collagenase and against Stromelysin-1 were > 10000 nM and 300 nM, respectively. The half-life in data set [7] was < 1 h.

For the molecule `N#Cc1ccc(-c2ccc(OCC(CSc3ccccc3)N(O)C=O)cc2)cc1` (stereo unspecified), the figures for the IC50 against Interstitial collagenase and on Stromelysin-1 were 4100 nM and 36 nM, respectively. Also, the half-life in data set [7] is < 1 h; in data set [4], 0.3 h.

`CC(COc1ccc(-c2ccc(C#N)cc2)cc1)N(O)C=O` (stereo unspecified) showed a half-life in data set [8] of 1.6 h. Moreover, in data set [9], the bioavailability was 33%. For the same molecule, the IC50 against Interstitial collagenase was > 10000 nM; in data set [3], 76000 nM; against Stromelysin-1 it was 620 nM.

For the molecule `N#Cc1ccc(-c2ccc(OCC(CN3C(=O)CNC3=O)N(O)C=O)cc2)cc1` (stereo unspecified), the AUC amounted to 59.8 uM hr l-1 in data set [1] and 68 uM hr l-1 in data set [6]. For the same molecule, the IC50 against Interstitial collagenase was found to be 2400 nM; in data set [3], 8200 nM; against Stromelysin-1 it was 14 nM. In data set [4], this molecule had a half-life of 7.3 h. In addition, the bioavailability in data set [5] is 100%.

For the molecule `CC1(C)NC(=O)N(CC(COc2ccc(-c3ccc(C#N)cc3)cc2)N(O)C=O)C1=O` (stereo unspecified), the AUC in [1] is reported as 24 uM hr l-1; in data set [6] it was 27.2 uM hr l-1. Further, the IC50 against Interstitial collagenase amounted to 2100 nM; in data set [3], 7800 nM; on Stromelysin-1, 24 nM. In addition, the bioavailability in data set [10] worked out at 85%; in data set [5] it was 110%. For the same molecule, in data set [4], the half-life was 7.7 h.

Take `N#Cc1ccc(-c2ccc(OCC(COc3ccccc3)N(O)C=O)cc2)cc1` (stereo unspecified): the IC50 against Interstitial collagenase was > 10000 nM; at Stromelysin-1 it was 130 nM. Further, the half-life in data set [7] is < 1 h.

As to `Cc1ccc(=O)n(CC(COc2ccc(-c3ccc(C#N)cc3)cc2)N(O)C=O)n1` (stereo unspecified), the results for the IC50 (against Interstitial collagenase; in data set [3]; at Stromelysin-1) were 4200 nM, 3400 nM and 37 nM, respectively. Moreover, the half-life in data set [4] was 0.5 h.

As for `CC(=O)N(O)CCOc1ccc(-c2ccc(C#N)cc2)cc1`, in data set [3], the midpoint of inhibition, the IC50, lay at 5900 nM.

In [8], `CC(COc1ccc(-c2ccc(C#N)cc2)cc1)C(=O)NO` (stereo unspecified) gave a half-life of 0.3 h. Besides, in [9], the bioavailability was 7%. Moreover, the IC50 against Interstitial collagenase was found to be 2500 nM; in data set [3], 19000 nM; on Stromelysin-1, 45 nM.

Turning to `N#Cc1ccc(-c2ccc(OCCNC(=O)NO)cc2)cc1`, the IC50 against Interstitial collagenase is > 50 nM; in [3], > 100000 nM; on Stromelysin-1, 80 nM.

For the molecule `CC(C)CC(COc1ccc(-c2ccc(C#N)cc2)cc1)N(O)C=O` (stereo unspecified), the IC50 was > 10000 nM against Interstitial collagenase and 120 nM against Stromelysin-1. Further, in data set [7], the half-life was < 1 h.

As for `N#Cc1ccc(-c2ccc(OCCN(O)C(N)=O)cc2)cc1`, the results for the IC50 (against Interstitial collagenase; in [3]; against Stromelysin-1) were > 50 nM, 35000 nM and > 100 nM, respectively.

As to `N#Cc1ccc(-c2ccc(OCC(CN3C(=O)CCC3=O)N(O)C=O)cc2)cc1` (stereo unspecified), the IC50 against Interstitial collagenase is > 10000 nM; in [3] it was 5200 nM; at Stromelysin-1 it was 11 nM. Besides, the half-life in data set [4] was 0.6 h.

Values taken from ChEMBL document CHEMBL1134095, “Biaryl ether retrohydroxamates as potent, long-lived, orally bioavailable MMP inhibitors” (Bioorg Med Chem Lett, 2001).
